Experiments:
bedstraw = test: Test B pre/postemergence bedstraw; assay type: in vivo, Galium aparine
Summary of the method: (§1)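 Herbicidal effect was estimated by eye on a ten-point control scale after plants spent twelve to sixteen days in a greenhouse following soil or foliar treatment. Foliar sprays targeted plants at one to four leaves; all doses were formulated in a non-phytotoxic solvent with surfactant.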

morningglory = test: Test B pre/postemergence morningglory; assay type: in vivo, Ipomoea hederacea
Summary of the method: as §1

bamyardgrass = test: Test B flood test barnyardgrass; assay type: in vivo, Echinochloa crus-galli
Summary of the method: (§2)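 Each value is a visual injury score relative to controls, with 10 meaning complete control and 0 no effect. Evaluation took place twelve to sixteen days after the 2-leaf-stage plants were treated and kept in the greenhouse.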

duck salad = test: Test B flood test duck salad; assay type: in vivo, Heteranthera limosa
Summary of the method: as §2

purple nutsedge = test: Test B pre/postemergence purple nutsedge; assay type: in vivo, Cyperus rotundus
Summary of the method: as §1

cocklebur = test: Test B pre/postemergence cocklebur; assay type: in vivo, Xanthium strumarium
Summary of the method: as §1

smallflower flatsedge = test: Test B flood test smallflower flatsedge; assay type: in vivo, Cyperus difformis
Summary of the method: as §2

giant foxtail = test: Test B pre/postemergence giant foxtail; assay type: in vivo, Setaria faberii
Summary of the method: as §1

blackgrass = test: Test B pre/postemergence blackgrass; assay type: in vivo, Alopecurus myosuroides
Summary of the method: as §1

wheat = test: Test B pre/postemergence wheat; assay type: in vivo, Triticum aestivum
Summary of the method: as §1

crabgrass = test: Test B pre/postemergence crabgrass; assay type: in vivo, Digitaria sanguinalis
Summary of the method: as §1

wild oat = test: Test B pre/postemergence wild oat; assay type: in vivo, Avena fatua
Summary of the method: as §1

rice = test: Test B flood test rice; assay type: in vivo, Oryza sativa
Summary of the method: as §2

velvetleaf = test: Test B pre/postemergence velvetleaf; assay type: in vivo, Abutilon theophrasti
Summary of the method: as §1

corn = test: Test B pre/postemergence corn; assay type: in vivo, Zea mays
Summary of the method: as §1

surinam grass = test: Test B pre/postemergence surinam grass; assay type: in vivo, Brachiaria decumbens
Summary of the method: as §1

[1] = Postemergence, Rate 125 g/ha, scale of 0 to 10 where 0 is no effect and 10 is complete control
[2] = Preemergence, Rate 125 g/ha, 0 is no effect, 10 is complete control
[3] = Preemergence, Rate 250 g/ha, scale 0 to 10, 0 is no effect, 10 is complete control
[4] = Preemergence, Rate 500 g/ha, scale 0 to 10 (0 no effect, 10 complete control)
[5] = Rate 62 g/ha, Postemergence, scale of 0 to 10 where 0 is no effect and 10 is complete control
[6] = Rate 250 g/ha, Postemergence, scale 0 to 10, 0 is no effect, 10 is complete control
[7] = Preemergence, Rate 62 g/ha, scale 0 to 10 (0 no effect, 10 complete control)
[8] = Rate 500 g/ha, Postemergence, scale 0 to 10
[9] = Postemergence (flood test species), Rate 125 g/ha, scale of 0 to 10 where 0 is no effect and 10 is complete control
[10] = Rate 62 g/ha, Postemergence section, flood test species, scale of 0 to 10 where 0 is no effect and 10 is complete control
[11] = Rate 250 g/ha, Postemergence (flood test), scale 0 to 10, 0 is no effect, 10 is complete control
[12] = Rate 500 g/ha, listed under Postemergence (flood test species), scale 0 to 10

## Cc1ccccc1Cn1c(=O)on(C(=O)N(c2ccc(Cl)cc2)C(C)C)c1=O [Compound 136]
bedstraw; [1]
  Bedstraw plant response rating: 5
bedstraw; [2]
  Bedstraw plant response rating (0 to 10 scale): 0
bedstraw; [3]
  Bedstraw plant response rating: 0
bedstraw; [4]
  Bedstraw plant response rating: 0
bedstraw; [5]
  Bedstraw plant response rating: 2
bedstraw; [6]
  Plant response rating, Bedstraw: 8
morningglory; [1]
  Morningglory plant response rating: 10
morningglory; [7]
  Morningglory plant response rating: 0
morningglory; [2]
  Morningglory plant response rating (0 to 10 scale): 0
morningglory; [3]
  Morningglory plant response rating: 0
morningglory; [4]
  Morningglory plant response rating: 0
morningglory; [5]
  Morningglory plant response rating: 6
morningglory; [6]
  Plant response rating, Morningglory: 10
morningglory; [8]
  Morningglory plant response rating: 10
bamyardgrass; [9]
  Barnyardgrass plant response rating: 0
bamyardgrass; [10]
  Barnyardgrass plant response rating: 0
bamyardgrass; [11]
  Plant response rating, Barnyardgrass: 0
bamyardgrass; Rate 500 g/ha, listed under Postemergence (flood test species), scale 0 to 10, 0 no effect, 10 complete control
  Barnyardgrass plant response rating: 0
Duck salad; [9]
  Ducksalad plant response rating: 0
Duck salad; [10]
  Ducksalad plant response rating: 0
Duck salad; [11]
  Plant response rating, Ducksalad: 0
Duck salad; [12]
  Ducksalad plant response rating: 0
Purple nutsedge; [1]
  Nutsedge plant response rating: 0
Purple nutsedge; [7]
  Nutsedge plant response rating: 0
Purple nutsedge; [2]
  Nutsedge plant response rating (0 to 10 scale): 0
Purple nutsedge; [3]
  Nutsedge plant response rating: 0
Purple nutsedge; [5]
  Nutsedge plant response rating: 0
Purple nutsedge; [6]
  Plant response rating, Nutsedge: 0
Purple nutsedge; [8]
  Nutsedge plant response rating: 0
cocklebur; [1]
  Cocklebur plant response rating: 2
cocklebur; [7]
  Cocklebur plant response rating: 0
cocklebur; [2]
  Cocklebur plant response rating (0 to 10 scale): 0
cocklebur; [3]
  Cocklebur plant response rating: 0
cocklebur; [5]
  Cocklebur plant response rating: 1
cocklebur; [6]
  Plant response rating, Cocklebur: 2
cocklebur; [8]
  Cocklebur plant response rating: 4
Smallflower flatsedge; [9]
  S. Flatsedge plant response rating: 0
Smallflower flatsedge; [10]
  S. Flatsedge plant response rating: 0
Smallflower flatsedge; [11]
  Plant response rating, S. Flatsedge: 0
Smallflower flatsedge; [12]
  S. Flatsedge plant response rating: 0
Giant foxtail; [1]
  Giant foxtail plant response rating: 4
Giant foxtail; [7]
  Giant foxtail plant response rating: 0
Giant foxtail; [2]
  Giant foxtail plant response rating (0 to 10 scale): 4
Giant foxtail; [3]
  Giant foxtail plant response rating: 10
Giant foxtail; [4]
  Giant foxtail plant response rating: 10
Giant foxtail; [5]
  Giant foxtail plant response rating: 0
Giant foxtail; [6]
  Plant response rating, Giant foxtail: 7
Giant foxtail; [8]
  Giant foxtail plant response rating: 7
blackgrass; [1]
  Blackgrass plant response rating: 0
blackgrass; [7]
  Blackgrass plant response rating: 0
blackgrass; [2]
  Blackgrass plant response rating (0 to 10 scale): 4
blackgrass; [3]
  Blackgrass plant response rating: 4
blackgrass; [4]
  Blackgrass plant response rating: 6
blackgrass; [5]
  Blackgrass plant response rating: 0
blackgrass; [6]
  Plant response rating, Blackgrass: 3
blackgrass; [8]
  Blackgrass plant response rating: 5
wheat; [1]
  Wheat plant response rating: 0
wheat; [7]
  Wheat plant response rating: 0
wheat; [2]
  Wheat plant response rating (0 to 10 scale): 0
wheat; [3]
  Wheat plant response rating: 0
wheat; [4]
  Wheat plant response rating: 0
wheat; [5]
  Wheat plant response rating: 0
wheat; [6]
  Plant response rating, Wheat: 0
wheat; [8]
  Wheat plant response rating: 0
crabgrass; [1]
  Crabgrass plant response rating: 2
crabgrass; [7]
  Crabgrass plant response rating: 0
crabgrass; [2]
  Crabgrass plant response rating (0 to 10 scale): 4
crabgrass; [3]
  Crabgrass plant response rating: 7
crabgrass; [4]
  Crabgrass plant response rating: 8
crabgrass; [5]
  Crabgrass plant response rating: 1
crabgrass; [6]
  Plant response rating, Crabgrass: 8
crabgrass; [8]
  Crabgrass plant response rating: 9
Wild oat; [1]
  Wild oats plant response rating: 0
Wild oat; [7]
  Wild oats plant response rating: 0
Wild oat; [2]
  Wild oats plant response rating (0 to 10 scale): 0
Wild oat; [3]
  Wild oats plant response rating: 0
Wild oat; [4]
  Wild oats plant response rating: 3
Wild oat; [5]
  Wild oats plant response rating: 0
Wild oat; [6]
  Plant response rating, Wild oats: 0
Wild oat; [8]
  Wild oats plant response rating: 3
rice; [9]
  Rice plant response rating: 0
rice; [10]
  Rice plant response rating: 0
rice; [11]
  Plant response rating, Rice: 0
rice; [12]
  Rice plant response rating: 0
velvetleaf; [1]
  Velvetleaf plant response rating: 0
velvetleaf; [7]
  Velvetleaf plant response rating: 0
velvetleaf; [2]
  Velvetleaf plant response rating (0 to 10 scale): 0
velvetleaf; [3]
  Velvetleaf plant response rating: 0
velvetleaf; [4]
  Velvetleaf plant response rating: 4
velvetleaf; [5]
  Velvetleaf plant response rating: 0
velvetleaf; [6]
  Plant response rating, Velvetleaf: 0
velvetleaf; [8]
  Velvetleaf plant response rating: 2
corn; [1]
  Corn plant response rating: 0
corn; [7]
  Corn plant response rating: 0
corn; [2]
  Corn plant response rating (0 to 10 scale): 0
corn; [3]
  Corn plant response rating: 0
corn; [4]
  Corn plant response rating: 0
corn; [5]
  Corn plant response rating: 0
corn; [6]
  Plant response rating, Corn: 0
corn; [8]
  Corn plant response rating: 0
Surinam grass; [1]
  B. signalgrass plant response rating: 0
Surinam grass; [7]
  B. signalgrass plant response rating: 3
Surinam grass; [2]
  B. signalgrass plant response rating (0 to 10 scale): 3
Surinam grass; [3]
  B. signalgrass plant response rating: 5
Surinam grass; [4]
  B. signalgrass plant response rating: 5
Surinam grass; [5]
  B. signalgrass plant response rating: 0
Surinam grass; [6]
  Plant response rating, B. signalgrass: 1
Surinam grass; Rate 500 g/ha, Postemergence, scale of 0 to 10 where 0 is no effect and 10 is complete control
  B. signalgrass plant response rating: 3
